Target: EP4 (Homo sapiens, UniProt P35408)
Assay: EP4 Antagonism by CRE-PLAP Reporter Assay (SE302 cells, PGE2-stimulated)
Format: cell-based
Parameters: HEK293 cells express endogenous EP4; endogenous in cells; host or cells: SE302 (HEK293 clone with CRE-PLAP reporter)
Details: SE302 (HEK293) cells, 3 ng/mL PGE2, overnight; single or multiple assay average values
Text: PGE2 and [^3H]-labelled PGE2 were purchased from Cayman Chemical (Ann Arbor, Mich.) and Perkin Elmer (Waltham, Mass.), respectively. Mouse breast 4T1 cells (CRL-2539) were obtained from American Tissue Culture Collection. SE302 cell line is a clone of the HEK293 cells containing cAMP response element (CRE) promoter that when activated drives secretion of placental-like alkaline phosphatase (PLAP). HEK293 cells express endogenous EP4 and show induction of PLAP in response to PGE2 and EP4 agonists, but not EP1, 2 or 3 agonists (Chen Q, Muramoto K, Masaaki N, Ding Y, Yang H, Mackey M, Li W, Inoue Y, Ackermann K, Shrota H, Matsumoto I, Spyvee M, Schiller S, Sumida T, Gusovsky F, and Lamphier M. A novel antagonist of the prostaglandin E2 EP4 receptor inhibits Th1 differentiation and Th17 expansion and is orally active in arthritis models. British J Pharmacol, 2010, 160: 292-310). BalB/C female mice at 7-8 week age were purchased from Jackson Laboratory (Bar Harbor, Me.). Mice were maintained under specific pathogen-free conditions.
EP4 Antagonism by CRE-PLAP Reporter Assay: SE302 cells were maintained in DMEM/F12 (50:50) (MediaTech) supplemented with 10% FBS (Tissue Culture Biologicals) plus penicillin/streptomycin. When used for assays, cells were plated in a 96-well plate at 2×10^4 cells/100 μL/well in serum-free assay medium (DMEM/F12 supplemented with 0.1% BSA plus penicillin/streptomycin) and incubated for 4-6 h. Cells were then stimulated with 3 ng/mL of PGE2 in the presence or absence of various concentrations of test compound overnight, and PLAP activity was measured by mixing 15 μL of culture supernatants with 75 μL of Lumi-phos (Lumigen, Inc.) and 60 μL of assay buffer containing 8 mmol/L MgSO4 in 0.1 mol/L carbonate-bicarbonate buffer pH11 in a new 96-well black plate and incubated for 2 h at room temperature. The intensity of luminescence, which reflected the PLAP activity in the supernatant, was quantified with an Envision 2101 Multilabel Reader. Values obtained from DMSO treated samples in the presence of PGE2 were defined as 100% of control, whereas values obtained from DMSO treated samples in the absence of PGE2 were defined as 0% of control. % of control for compound treated samples was calculated as follows: (actual reading−0% of control)/(100% of control−0% of control)×100. IC50 value for each individual experiment was calculated using GraphPad Prism 6.02 (Lake Forest, Calif.) with % of control values.
Compounds of the present invention were assayed according to the methods as described above, and IC50 values, which may be single assay values or multiple assay average values, are summarized in Table 1. Compounds marked “ABS” show absolute stereochemistry.

Chain of EP4 (P35408 whole entry): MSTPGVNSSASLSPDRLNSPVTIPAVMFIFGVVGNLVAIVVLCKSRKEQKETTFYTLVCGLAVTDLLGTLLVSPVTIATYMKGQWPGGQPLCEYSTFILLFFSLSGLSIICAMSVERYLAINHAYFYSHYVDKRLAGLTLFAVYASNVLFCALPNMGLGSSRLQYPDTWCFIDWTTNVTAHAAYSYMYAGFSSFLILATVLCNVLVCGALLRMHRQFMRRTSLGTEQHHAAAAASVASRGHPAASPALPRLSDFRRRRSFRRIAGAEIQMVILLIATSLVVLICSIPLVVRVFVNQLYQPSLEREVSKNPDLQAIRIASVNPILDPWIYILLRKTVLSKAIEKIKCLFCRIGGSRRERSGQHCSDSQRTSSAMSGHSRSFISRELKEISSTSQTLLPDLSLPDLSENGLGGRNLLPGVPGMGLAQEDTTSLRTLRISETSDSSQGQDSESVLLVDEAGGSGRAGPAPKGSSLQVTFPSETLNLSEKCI

Structure (SMILES) | IC50 [nM]
C[C@H](NC(=O)c1c(C(F)(F)F)nn2c1N(Cc1ccccc1C(F)(F)F)CCC2)c1ccc(C(=O)O)cc1 [Compound 46, (S)-4-(1-(2-(trifluoromethyl)-4-(2-(trifluoromethyl)benzyl)-4,5,6,7-tetrahydropyrazolo[1,5-a]pyrimidine-3-carboxamido)ethyl)benzoic Acid] | 100
C[C@H](NC(=O)c1c(C(F)(F)F)nn2c1N(c1ccc(C(F)(F)F)cc1)CC2)c1ccc(C(=O)O)cc1 [Compound 47, (S)-4-(1-(6-(trifluoromethyl)-1-(4-(trifluoromethyl)phenyl)-2,3-dihydro-1H-imidazo[1,2-b]pyrazole-7-carboxamido)ethyl)benzoic Acid] | 48.9
C[C@H](NC(=O)c1c(C(F)(F)F)nn2c1N(c1cccc(Cl)c1)CC2)c1ccc(C(=O)O)cc1 [Compound 49, (S)-4-(1-(1-(3-chlorophenyl)-6-(trifluoromethyl)-2,3-dihydro-1H-imidazo[1,2-b]pyrazole-7-carboxamido)ethyl)benzoic Acid] | 100
C[C@H](NC(=O)c1c(C(F)(F)F)nn2c1N(c1ccc(Cl)cc1)CC2)c1ccc(C(=O)O)cc1 [Compound 50, (S)-4-(1-(1-(4-chlorophenyl)-6-(trifluoromethyl)-2,3-dihydro-1H-imidazo[1,2-b]pyrazole-7-carboxamido)ethyl)benzoic Acid] | 91.3
C[C@H](NC(=O)c1c(C(F)(F)F)nn2c1N(c1ccc(C(F)(F)F)cc1)CCC2)c1ccc(C(=O)O)cc1 [Compound 51, (S)-4-(1-(2-(trifluoromethyl)-4-(4-(trifluoromethyl)phenyl)-4,5,6,7-tetrahydropyrazolo[1,5-a]pyrimidine-3-carboxamido)ethyl)benzoic Acid] | 100
C[C@H](NC(=O)c1c(C(F)(F)F)nn2c1N(Cc1cccc(C(F)(F)F)c1)CC2)c1ccc(C(=O)NC#N)cc1 [Compound 52, (S)—N-(1-(4-(cyanocarbamoyl)phenyl)ethyl)-6-(trifluoromethyl)-1-(3-(trifluoromethyl)benzyl)-2,3-dihydro-1H-imidazo[1,2-b]pyrazole-7-carboxamide] | 0.07
C[C@H](NC(=O)c1c(C(F)(F)F)nn2c1N(Cc1cccc(C(F)(F)F)c1)CC2)c1ccc(C(=O)NS(=O)(=O)c2ccc(F)c(F)c2)cc1 [Compound 53, (S)—N-(1-(4-(((3,4-difluorophenyl)sulfonyl)carbamoyl)phenyl)ethyl)-6-(trifluoromethyl)-1-(3-(trifluoromethyl)benzyl)-2,3-dihydro-1H-imidazo[1,2-b]pyrazole-7-carboxamide] | 3.91
C[C@H](NC(=O)c1c(C(F)(F)F)nn2c1N(Cc1cccc(OC(F)(F)F)c1)CC2)c1ccc(C(=O)NS(=O)(=O)c2ccccc2)cc1 [Compound 54, (S)—N-(1-(4-((phenylsulfonyl)carbamoyl)phenyl)ethyl)-1-(3-(trifluoromethoxy)benzyl)-6-(trifluoromethyl)-2,3-dihydro-1H-imidazo[1,2-b]pyrazole-7-carboxamide] | 21.6
C[C@H](NC(=O)c1c(C(F)(F)F)nn2c1N(Cc1cccc(C(F)(F)F)c1)CC2)c1ccc(C(=O)NS(C)(=O)=O)cc1 [Compound 55, (S)—N-(1-(4-((methylsulfonyl)carbamoyl)phenyl)ethyl)-6-(trifluoromethyl)-1-(3-(trifluoromethyl)benzyl)-2,3-dihydro-1H-imidazo[1,2-b]pyrazole-7-carboxamide] | 39.3
C[C@H](NC(=O)c1c(C(F)(F)F)nn2c1N(Cc1cccc(C(F)(F)F)c1)CC2)c1ccc(C(=O)NS(=O)(=O)C2CC2)cc1 [Compound 56, (S)—N-(1-(4-((cyclopropylsulfonyl)carbamoyl)phenyl)ethyl)-6-(trifluoromethyl)-1-(3-(trifluoromethyl)benzyl)-2,3-dihydro-1H-imidazo[1,2-b]pyrazole-7-carboxamide] | 73
C[C@H](NC(=O)c1c(C(F)(F)F)nn2c1N(Cc1ccc(C(F)(F)F)cc1)CC2)c1ccc(C2CC2)cc1 [Compound 57, (S)—N-(1-(4-cyclopropylphenyl)ethyl)-6-(trifluoromethyl)-1-(4-(trifluoromethyl)benzyl)-2,3-dihydro-1H-imidazo[1,2-b]pyrazole-7-carboxamide] | 310
Cc1cc([C@H](C)NC(=O)c2c(C(F)(F)F)nn3c2N(Cc2ccc(C(F)(F)F)cc2)CC3)ccc1-c1nn[nH]n1 [Compound 58, (S)—N-(1-(3-methyl-4-(2H-tetrazol-5-yl)phenyl)ethyl)-6-(trifluoromethyl)-1-(4-(trifluoromethyl)benzyl)-2,3-dihydro-1H-imidazo[1,2-b]pyrazole-7-carboxamide] | 4.71
CCc1nn2c(c1C(=O)N[C@@H](C)c1ccc(C(=O)O)cc1)N(Cc1cccc(C(F)(F)F)c1)CC2 [Compound 59, (S)-4-(1-(6-ethyl-1-(3-(trifluoromethyl)benzyl)-2,3-dihydro-1H-imidazo[1,2-b]pyrazole-7-carboxamido)ethyl)benzoic acid] | 0.68
C[C@H](NC(=O)c1c(-c2ccccc2)nn2c1N(Cc1cccc(C(F)(F)F)c1)CC2)c1ccc(C(=O)O)cc1 [Compound 60, (S)-4-(1-(6-phenyl-1-(3-(trifluoromethyl)benzyl)-2,3-dihydro-1H-imidazo[1,2-b]pyrazole-7-carboxamido)ethyl)benzoic Acid] | 7.65
C[C@H](NC(=O)c1c(C(F)(F)F)nn2c1N(Cc1ccccc1Cl)CCC2)c1ccc(C(=O)O)cc1 [Compound 61, (S)-4-(1-(4-(2-chlorobenzyl)-2-(trifluoromethyl)-4,5,6,7-tetrahydropyrazolo[1,5-a]pyrimidine-3-carboxamido)ethyl)benzoic Acid] | 100
CSc1cc(CN2CCn3nc(C(F)(F)F)c(C(=O)N[C@@H](C)c4ccc(C(=O)O)cc4)c32)cc(C(F)(F)F)c1 [Compound 62, (S)-4-(1-(1-(3-(methylthio)-5-(trifluoromethyl)benzyl)-6-(trifluoromethyl)-2,3-dihydro-1H-imidazo[1,2-b]pyrazole-7-carboxamido)ethyl)benzoic Acid] | 0.57
C[C@H](NC(=O)c1c(C(F)(F)F)nn2c1N(Cc1ccc(Cl)c(C(F)(F)F)c1)CC2)c1ccc(C(=O)O)cc1 [Compound 63, (S)-4-(1-(1-(4-chloro-3-(trifluoromethyl)benzyl)-6-(trifluoromethyl)-2,3-dihydro-1H-imidazo[1,2-b]pyrazole-7-carboxamido)ethyl)benzoic acid] | 1.3
C[C@H](NC(=O)c1c(C(F)(F)F)nn2c1N(Cc1cccc(CO)c1)CC2)c1ccc(C(=O)O)cc1 [Compound 64, (S)-4-(1-(1-(3-(hydroxymethyl)benzyl)-6-(trifluoromethyl)-2,3-dihydro-1H-imidazo[1,2-b]pyrazole-7-carboxamido)ethyl)benzoic acid] | 0.82
C[C@H](NC(=O)c1c(C(F)(F)F)nn2c1N(Cc1cccc(CCl)c1)CC2)c1ccc(C(=O)O)cc1 [Compound 65, (S)-4-(1-(1-(3-(chloromethyl)benzyl)-6-(trifluoromethyl)-2,3-dihydro-1H-imidazo[1,2-b]pyrazole-7-carboxamido)ethyl)benzoic acid] | 0.93
C[C@H](NC(=O)c1c(C(F)(F)F)nn2c1N(Cc1cccc(CN3CCn4nc(C(F)(F)F)c(C(=O)N[C@@H](C)c5ccc(C(=O)O)cc5)c43)c1)CC2)c1ccc(C(=O)O)cc1 [Compound 66, 4,4′-((1S,1′S)-((1,1′-(1,3-phenylenebis(methylene))bis(6-(trifluoromethyl)-2,3-dihydro-1H-imidazo[1,2-b]pyrazole-1,7-diyl-7-carbonyl))bis(azanediyl))bis(ethane-1,1-diyl))dibenzoic Acid] | 35.8
C[C@H](NC(=O)c1c(C(F)(F)F)nn2c1N(Cc1cccc(CF)c1)CC2)c1ccc(C(=O)O)cc1 [Compound 67, (S)-4-(1-(1-(3-(fluoromethyl)benzyl)-6-(trifluoromethyl)-2,3-dihydro-1H-imidazo[1,2-b]pyrazole-7-carboxamido)ethyl)benzoic Acid] | 1.2

Source: patent publication US11434246B2, “EP4 antagonists” (Eisai R&D Management Co., Ltd., priority 2015, dated 2022)
